{"source": "patent US20100210635A1", "about": "“RENIN INHIBITORS” (Takeda Pharmaceutical Company Limited, priority 2006, published 2010)", "data": [{"biological_target": "T1, Recombinant human renin (Homo sapiens, UniProt P00797)", "T1 construct": "isolate the active form (residues 67-406); made in house; host or cells: FreeStyle 293-F cells (transient expression of pcDNA3.1(+)/hREN)", "T1 sequence (P00797 67-406)": "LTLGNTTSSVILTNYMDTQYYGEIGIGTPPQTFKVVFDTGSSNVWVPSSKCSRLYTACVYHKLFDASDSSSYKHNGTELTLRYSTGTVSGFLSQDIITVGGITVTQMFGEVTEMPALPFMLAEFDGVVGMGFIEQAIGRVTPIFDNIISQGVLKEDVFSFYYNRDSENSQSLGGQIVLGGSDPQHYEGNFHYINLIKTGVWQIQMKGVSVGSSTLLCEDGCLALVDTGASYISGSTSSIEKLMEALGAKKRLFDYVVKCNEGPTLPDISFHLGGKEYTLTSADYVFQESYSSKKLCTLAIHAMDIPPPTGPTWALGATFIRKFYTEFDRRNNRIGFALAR", "experiment": "In vitro enzymatic activity assay of Renin inhibitors (fluorescence, QXL520/HiLyteFluo488 peptide substrate)", "assay_type": "biochemical", "details": "not given", "description": "(§1) Test compounds in varying concentrations may be reacted with recombinant human renin in the presence of substrate, e.g., QXL520-γ-Abu-Ile-His-Pro-Phe-His-Leu-Val-Ile-His-Thr-Lys (HiLyteFluo488)-Arg-OH (Anaspec, San Jose, Calif.). The reaction can be followed kinetically using fluorescence (excitation λ=485 nm; emission λ=538 nm). Inhibition constants (IC50) may be calculated by non-linear curve fitting of the compound concentrations and fluorescence intensities to the standard IC50 equation.\n(§2) Solutions of test compounds in varying concentrations (<2 mM final concentration) are prepared in dimethyl sulfoxide (DMSO) and then diluted into assay buffer comprising 50 mM Hepes, 1 mM EDTA, 1 mM DTT, 0.1 mg/ml BSA, 0.01% Brij35, pH 7.4. Alternatively, the assay can be performed with a high BSA concentration, wherein the buffer contains an additional 2% BSA.\n(§3) Recombinant human renin (3 nM final concentration) is added to the dilutions and pre-incubated with the compounds for 10 minutes at 37° C. As described in Examples A-C above, human Renin can be obtained by expressing preprorenin (residue 1-406) in mammalian cells, treating the prorenin (residues 24-406) contained in the culture supernatant with trypsin, and isolate the active form (residues 67-406). After pre-incubation, the reaction is initiated with 1 μM of substrate QXL520-γ-Abu-Ile-His-Pro-Phe-His-Leu-Val-Ile-His-Thr-Lys (HiLyteFluo488)-Arg-OH (Anaspec, San Jose, Calif.). The final DMSO in the assay is 5%. The total volume of the reaction mixture is 20 μL, which can be placed on Greiner 384-well small volume plates.\n(§4) Renin activity may be determined via fluorescence (excitation λ=485 nm; emission λ=538 nm), e.g., on a Molecular Devices SPECTROmax GEMINI XPS. The fluorescence intensity is determined upon the addition of substrate and determined again after incubation at 37° C. for one hour. The fluorescence intensity of a blank (no inhibition) using vehicle alone is also determined. Renin activity is linearly proportional to the change in fluorescence observed (final−initial).\n(§5) The percent inhibition of Renin at a given compound concentration is defined as:\n(§6) 100%×[1−(Fcompound/Fblank)]\n(§7) where Fcompound is the observed fluorescence at a given concentration of test compound and Fblank is the observed fluorescence in the presence of vehicle alone.\n(§8) The pIC50 value (negative log of the molar concentration of the compound that produces 50% inhibition) of a test compound is calculated by non-linear least squares curve fitting of the equation: […]\n(§9) to percent inhibition versus compound concentration. The 50% inhibitory concentration (IC50) of a test compound is calculated by raising 10 to the negative pIC50 (10^−pIC50).", "units": {"IC50": "nM"}, "values": [{"compound": "CN1CCN(C(=O)Oc2ccc(C[C@@H]3CNCCN3C(=O)CCc3ccccc3Oc3ccccc3)cc2)CC1", "note": "[Example 72, (R)-4-((1-(3-(2-phenoxyphenyl)propanoyl)piperazin-2-yl)methyl)-phenyl 4-methylpiperazine-1-carboxylate]", "IC50": "500 to 5000"}, {"compound": "O=C(Oc1ccc(C[C@@H]2CNCCN2C(=O)CCc2ccccc2Oc2ccccc2)cc1)N1CCOCC1", "note": "[Example 73, (R)-4-((1-(3-(2-phenoxyphenyl)propanoyl)piperazin-2-yl)methyl)-phenyl morpholine-4-carboxylate]", "IC50": "500 to 5000"}, {"compound": "CCN(CC)C(=O)Oc1ccc(C[C@@H]2CNCCN2C(=O)CCc2ccccc2Oc2ccccc2)cc1", "note": "[Example 74, (R)-4-((1-(3-(2-phenoxyphenyl)propanoyl)piperazin-2-yl)methyl)-phenyl diethylcarbamate]", "IC50": "500 to 5000"}, {"compound": "CC(=O)NCCc1ccccc1Oc1ccccc1CCC(=O)N1CCNC[C@H]1Cc1ccc(OC(=O)N2CCOCC2)cc1", "note": "[Example 80, (R)-4-((1-(3-(2-(2-(2-acetamidoethyl)phenoxy)phenyl)propanoyl)piperazin-2-yl)methyl)phenyl morpholine-4-carboxylate]", "IC50": "500 to 5000"}]}, {"biological_target": "T1, Recombinant human renin", "experiment": "In vitro enzymatic activity assay of Renin inhibitors (fluorescence, QXL520/HiLyteFluo488 peptide substrate)", "assay_type": "biochemical", "details": "recombinant human renin 3 nM, 1 μM substrate, 37° C., pH 7.4; values given as ranges; read-out: IC50 of Exemplified Compounds Against Renin", "description": "as §1, §2, §3, §4, §5, §6, §7, §8, §9", "units": {"IC50": "nM"}, "values": [{"compound": "COC(=O)CCc1ccccc1Oc1ccccc1CCC(=O)N1CCNC[C@H]1Cc1ccccc1", "note": "[Example 67, (R)-methyl 3-(2-(2-(3-(2-benzylpiperazin-1-yl)-3-oxopropyl)phenoxy)phenyl)propanoate]", "IC50": "< 500"}, {"compound": "O=C(CCc1ccccc1Oc1ccccc1)N1CCNC[C@H]1Cc1ccc(O)cc1", "note": "[Example 68, (R)-1-(2-(4-hydroxybenzyl)piperazin-1-yl)-3-(2-phenoxyphenyl)-propan-1-one]", "IC50": "< 500"}, {"compound": "COC(=O)COc1ccc(C[C@@H]2CNCCN2C(=O)CCc2ccccc2Oc2ccccc2)cc1", "note": "[Example 69, (R)-methyl 2-(4-((1-(3-(2-phenoxyphenyl)propanoyl)piperazin-2-yl)methyl)phenoxy)acetate]", "IC50": "500 to 5000"}, {"compound": "NC(=O)COc1ccc(C[C@@H]2CNCCN2C(=O)CCc2ccccc2Oc2ccccc2)cc1", "note": "[Example 70, (R)-2-(4-((1-(3-(2-phenoxyphenyl)propanoyl)piperazin-2-yl)methyl)phenoxy)acetamide]", "IC50": "< 500"}, {"compound": "CN(C)C(=O)COc1ccc(C[C@@H]2CNCCN2C(=O)CCc2ccccc2Oc2ccccc2)cc1", "note": "[Example 71, (R)—N,N-dimethyl-2-(4-((1-(3-(2-phenoxyphenyl)propanoyl)piperazin-2-yl)methyl)phenoxy)acetamide]", "IC50": "500 to 5000"}, {"compound": "COCCCOc1ccccc1CCC(=O)N1CCNC[C@H]1Cc1ccccc1", "note": "[Example 75, (R)-1-(2-benzylpiperazin-1-yl)-3-(2-(3-methoxypropoxy)phenyl)-propan-1-one]", "IC50": "500 to 5000"}, {"compound": "O=C(CCc1ccccc1OCCCO)N1CCNC[C@H]1Cc1ccccc1", "note": "[Example 76, (R)-1-(2-benzylpiperazin-1-yl)-3-(2-(3-hydroxypropoxy)phenyl)-propan-1-one]", "IC50": "500 to 5000"}, {"compound": "COCCOCCCOc1ccccc1CCC(=O)N1CCNC[C@H]1Cc1ccccc1", "note": "[Example 77, (R)-1-(2-benzylpiperazin-1-yl)-3-(2-(3-(2-methoxyethoxy)propoxy)phenyl)propan-1-one]", "IC50": "500 to 5000"}, {"compound": "CCC(=O)NCCc1ccccc1Oc1ccccc1CCC(=O)N1CCNC[C@H]1Cc1ccccc1", "note": "[Example 78, (R)—N-(2-(2-(3-(2-benzylpiperazin-1-yl)-3-oxopropyl)phenoxy)phenethyl)propionamide]", "IC50": "< 500"}, {"compound": "CC(=O)NCCc1ccccc1Oc1ccccc1CCC(=O)N1CCNC[C@H]1Cc1ccc(O)cc1", "note": "[Example 79, (R)—N-(2-(2-(3-(2-(4-hydroxybenzyl)piperazin-1-yl)-3-oxopropyl)phenoxy)phenethyl)acetamide]", "IC50": "< 500"}, {"compound": "CC(=O)NCCc1ccccc1Oc1ccccc1CCC(=O)N1CCNC[C@H]1Cc1ccc(OCC(N)=O)cc1", "note": "[Example 81, (R)-2-(4-((1-(3-(2-(2-(2-acetamidoethyl)phenoxy)phenyl)propanoyl)piperazin-2-yl)methyl)phenoxy)acetamide]", "IC50": "< 500"}, {"compound": "O=C(O)CCc1ccccc1Oc1ccccc1CCC(=O)N1CCNC[C@H]1Cc1ccccc1", "note": "[Example 82, (R)-3-(2-(2-(3-(2-Benzylpiperazin-1-yl)-3-oxopropyl)phenoxy)phenyl)propanoic acid]", "IC50": "500 to 5000"}, {"compound": "NC(=O)CCc1ccccc1Oc1ccccc1CCC(=O)N1CCNC[C@H]1Cc1ccccc1", "note": "[Example 83, (R)-3-(2-(2-(3-(2-benzylpiperazin-1-yl)-3-oxopropyl)phenoxy)phenyl)propanamide]", "IC50": "< 500"}, {"compound": "CC(=O)NCCc1ccccc1Cc1ccccc1CCC(=O)N1CCNC[C@H]1Cc1ccccc1", "note": "[Example 84, (R)—N-(2-(2-(3-(2-benzylpiperazin-1-yl)-3-oxopropyl)benzyl)phenethyl)acetamide]", "IC50": "< 500"}, {"compound": "O=C(CCc1ccccc1Oc1ccccc1)N1CCNC[C@H]1Cc1ccc(OCc2nnn[nH]2)cc1", "note": "[Example 85, (R)-1-(2-(4-((1H-tetrazol-5-yl)methoxy)benzyl)piperazin-1-yl)-3-(2-phenoxyphenyl)propan-1-one]", "IC50": "< 500"}, {"compound": "O=C(O)COc1ccc(C[C@@H]2CNCCN2C(=O)CCc2ccccc2Oc2ccccc2)cc1", "note": "[Example 86, (R)-2-(4-((1-(3-(2-phenoxyphenyl)propanoyl)piperazin-2-yl)methyl)phenoxy)acetic acid]", "IC50": "500 to 5000"}, {"compound": "O=C(CCc1ccccc1Oc1ccccc1CO)N1CCNC[C@H]1Cc1ccccc1", "note": "[Example 87, (R)-1-(2-benzylpiperazin-1-yl)-3-(2-(2-(hydroxymethyl)phenoxy)phenyl)propan-1-one]", "IC50": "< 500"}, {"compound": "CC(=O)NCCc1ccccc1Cc1ccccc1CCC(=O)N1CCNC[C@H]1Cc1ccc(O)cc1", "note": "[Example 88, (R)—N-(2-(2-(3-(2-(4-hydroxybenzyl)piperazin-1-yl)-3-oxopropyl)benzyl)phenethyl)acetamide]", "IC50": "< 500"}, {"compound": "CC(=O)NCCc1ccccc1Cc1ccccc1CCC(=O)N1CCNC[C@H]1Cc1ccc(OCC(N)=O)cc1", "note": "[Example 89, (R)-2-(4-((1-(3-(2-(2-(2-acetamidoethyl)benzyl)phenyl)propanoyl)piperazin-2-yl)methyl)phenoxy)acetamide]", "IC50": "< 500"}, {"compound": "CC(=O)NCCc1ccccc1Cc1ccccc1CCC(=O)N1CCNC[C@H]1Cc1ccc(OCC(=O)O)cc1", "note": "[Example 90, (R)-2-(4-((1-(3-(2-(2-(2-acetamidoethyl)benzyl)phenyl)propanoyl)piperazin-2-yl)methyl)phenoxy)acetic acid]", "IC50": "< 500"}, {"compound": "CC(=O)NCCc1ccccc1Cc1ccccc1CCC(=O)N1CCNC[C@H]1Cc1ccc(OCC(=O)NS(C)(=O)=O)cc1", "note": "[Example 91, (R)-2-(4-((1-(3-(2-(2-(2-acetamidoethyl)benzyl)phenyl)propanoyl)piperazin-2-yl)methyl)phenoxy)-N-(methylsulfonyl)acetamide]", "IC50": "< 500"}, {"compound": "COC(=O)COc1ccc(C[C@@H]2CNCCN2C(=O)CCc2ccccc2Cc2ccccc2CCNC(C)=O)cc1", "note": "[Example 92, (R)-Methyl 2-(4-((1-(3-(2-(2-(2-acetamidoethyl)benzyl)phenyl)propanoyl)piperazin-2-yl)methyl)phenoxy)acetate]", "IC50": "< 500"}, {"compound": "CC(=O)NCCc1ccccc1Cc1ccccc1CCC(=O)N1CCNC[C@H]1Cc1ccc(C(=O)NS(C)(=O)=O)cc1", "note": "[Example 93, (R)-4-((1-(3-(2-(2-(2-acetamidoethyl)benzyl)phenyl)propanoyl)piperazin-2-yl)methyl)-N-(methylsulfonyl)benzamide]", "IC50": "< 500"}, {"compound": "CC(=O)NCCc1ccccc1Cc1ccccc1CCC(=O)N1CCNC[C@H]1Cc1ccc(-c2nnn[nH]2)cc1", "note": "[Example 94, (R)—N-(2-(2-(3-(2-(4-(1H-tetrazol-5-yl)benzyl)piperazin-1-yl)-3-oxopropyl)benzyl)phenethyl)acetamide]", "IC50": "< 500"}]}]}
